Tests used:
KKA^y mouse = assay: Hypoglycemic and hypolipidemic effect in KKA^y mouse (oral, once a day for three days); format: in vivo; conditions: KKA^y mice, blood 18 hours after final administration
Description: The hypoglycemic effect and hypolipidemic effect were examined using KKA^y mouse which was known as insulin-independent diabetic animal. A group of KKA^y mice (9 to 11 week age) were divided into several groups based on plasma glucose concentration. Each group included mice having an equal plasma glucose concentration. To the mouse was orally administered a compound of the invention in the form of suspension in a 1% methylcellulose solution. The administration was performed once a day and for a period of three days. To the control (mouse having been administered no hypoglycemic agent) was orally administered a 1% methylcellulose solution in the same manner.
After 18 hours from the final administration, blood was collected, and the plasma glucose concentration and the triglyceride concentration were measured. The measurements were performed using commercially available measuring kits (Glucose CII-TestWako and Triglyceride G-TestWako, respectively, both available from Wako Chemicals Co., Ltd.).
The plasma glucose concentration and the triglyceride concentration were examined for each of the divided mouse groups, and their ratio (%) per the corresponding values obtained in the control was calculated.
The same tests were also performed using the comparison compounds, that is, troglitazone and pioglitazone hydrochloride, which were known as pharmaceuticals for treating diabetes.

Compound	Plasma glucose concentration (% per control) (KKA^y mouse; dosage 30 mg/kg)	Triglyceride concentration (% per control) (KKA^y mouse; dosage 30 mg/kg)	Plasma glucose concentration (% per control) (KKA^y mouse; dosage 100 mg/kg)	Triglyceride concentration (% per control) (KKA^y mouse; dosage 100 mg/kg)	further results
COCCOC(Cc1cc2cc(OCc3ccc(C(F)(F)F)cc3)ccc2[nH]1)C(=O)O (centres unmarked) [Compound 2, 2-(2-methoxyethoxy)-3-[5-[(4-trifluoro-methyl)benzyloxy]-2-indolyl]propionic acid]	53 % per control	17 % per control	–	–	–
COCCOC(Cc1cnc2cc(OCc3ccc(Cl)cc3)ccc2c1)C(=O)O (centres unmarked) [Example 6, 3-[7-(4-Chlorobenzyloxy)-3-quinolyl]-2-(2-methoxyethoxy) propionic acid]	–	–	–	–	melting point: 110 to 113 °C
COCCOC(Cc1cnc2ccc(OCc3ccc([N+](=O)[O-])cc3)cc2c1)C(=O)O (centres unmarked) [Example 7, 2-(2-Methoxyethoxy)-3-[6-(4-nitrobenzyloxy)-3-quinolyl]propionic acid]	–	–	–	–	melting point: 146 to 148 °C
O=C(O)C(Cc1cnc2cc(OCc3ccc(Cl)cc3)ccc2c1)Oc1ccccc1 (centres unmarked) [Compound 5, 3-[7-(4-chlorobenzyloxy)-3-quinolyl]-2-phenoxypropionic acid]	77 % per control	81 % per control	–	–	–
CCOC(Cc1ccc2c(CCc3nc(-c4ccccc4)oc3C)noc2c1)C(=O)O (centres unmarked) [Compound 7, 2-ethoxy-3-[3-[2-(2-phenyl-5-methyl-4-oxazolyl)ethyl]-1,2-benzisoxazol-6-yl]-propionic acid]	–	–	–	–	Plasma glucose concentration (% per control) (KKA^y mouse; dosage 1 mg/kg): 76 % per control; Triglyceride concentration (% per control) (KKA^y mouse; dosage 1 mg/kg): 87 % per control; Plasma glucose concentration (% per control) (KKA^y mouse; dosage 3 mg/kg): 61 % per control; Triglyceride concentration (% per control) (KKA^y mouse; dosage 3 mg/kg): 65 % per control; Plasma glucose concentration (% per control) (KKA^y mouse; dosage 10 mg/kg): 60 % per control; Triglyceride concentration (% per control) (KKA^y mouse; dosage 10 mg/kg): 45 % per control
CCOC(Cc1cnc2cc(OCc3ccc(Cl)cc3)ccc2c1)C(=O)O (centres unmarked) [Compound 4, 3-[7-(4-chlorobenzyloxy)-3-quinolyl]-2-ethoxypropionic acid]	58 % per control	61 % per control	–	–	–
O=C(O)C(Cc1cnc2ccc(OCc3ccc(C(F)(F)F)cc3)cc2c1)Sc1ccccc1 (centres unmarked) [Compound 1, 3-[6-[(4-trifluoromethyl)benzyloxy]-3-quinolyl]-2-(phenylthio) propionic acid]	–	–	68 % per control	60 % per control	–
CCc1ccc(CCOc2ccc(CC3SC(=O)NC3=O)cc2)nc1.Cl (centres unmarked) [Pioglitazone hydrochloride, reference compound]	68 % per control	84 % per control	65 % per control	69 % per control	–
Cc1oc(-c2ccccc2)nc1CCc1noc2cc(CC(Sc3ccccc3)C(=O)O)ccc12 (centres unmarked) [Compound 6, 2-phenylthio-3-[3-[2-(2-phenyl-5-methyl-4-oxazolyl)ethyl]-1,2-benzisoxazol-6-yl]-propionic acid]	–	–	46 % per control	31 % per control	–
Cc1c(C)c2c(c(C)c1O)CCC(C)(COc1ccc(CC3SC(=O)NC3=O)cc1)O2 (centres unmarked) [Troglitazone, reference compound]	84 % per control	99 % per control	68 % per control	101 % per control	–
CCCSC(Cc1cnc2cc(OCc3ccc(Cl)cc3)ccc2c1)C(=O)O (centres unmarked) [Example 2, 3-[7-(4-Chlorobenzyloxy)-3-quinolyl]-2-(propylthio) propionic acid]	–	–	–	–	melting point: 50 to 60 °C
CCOC(Cc1cnc2ccc(OCc3ccc(Cl)cc3)cc2c1)C(=O)O (centres unmarked) [Compound 3, 3-[6-(4-chlorobenzyloxy)-3-quinolyl]-2-ethoxypropionic acid]	63 % per control	66 % per control	–	–	–
